According to patent publication US11980594B2, “Composition and method for treating a drug-resistant cancer” (NOVELWISE PHARMACEUTICAL CORPORATION, priority 2021, dated 2024):
Read-outs that look alike come from different tables or passages of the source.

What was measured:
[1] = tested on: MGMT; experiment: Western blot of MGMT in GBM-R cells; assay type: cell-based, human; conditions: A172-R and U87MG-R cells; 50 μM TMZ without or with 5 and 10 μM BMX; 48 hrs; FIG. 5B, 5C
Procedure: The cells were collected and lysed in RIPA lysis buffer (EMD Millipore Billerica, Mass., USA, 10×RIPA buffer) containing a protease inhibitor. Protein concentration was determined using a protein assay kit (Bio-Rad Laboratories, Hercules, Calif., USA). The SDS loading buffer was mixed with the protein samples. Proteins (20 μg/lane) were separated using 8%-12% SDS-PAGE and transferred to a PVDF membrane, which was blocked with 5% bovine serum albumin at room temperature for 1 hr in tris-buffered saline (TBS)-Tween 20 (0.5%; TBS-T), incubated with primary antibodies overnight at […], and then incubated with horseradish peroxidase (HRP)-conjugated secondary antibodies at room temperature for 1 hr. After washing thoroughly with TBS-T, the HRP signals were detected with a chemical HRP substrate. Signal of each target protein was visualized by incubation with an enhanced chemiluminescent reagent and exposure to X-ray film.

[2] = tested on: A172 cells; experiment: Cell proliferation/viability assay (CCK8 kit; text says MTT), A172; assay type: cell-based; conditions: Homo sapiens, A 172, single agent, FIG. 2B/2C, read-out: IC50 values (alone)
Source text: (§1) Four GBM cell lines U87, U87R, A172, and A172R were used in this study. The American Type Culture Collection (ATCC; Manassas, Va., USA) provided human GBM cell lines U87-MG (ATCC HTB-14; GBM of unknown origin) and A172 (ATCC CRL-1620; ATCC). U87R and A172R cells were obtained from Dr. Tsung-I Hsu and Dr. Jian-Ying Chung (The Ph.D. Program for Neural Regenerative Medicine, College of Medical Science and Technology, Taipei Medical University, Taipei, Taiwan). These cells were maintained in Dulbecco's modified Eagle medium (DMEM) with 10% fetal bovine serum (FBS) and 50 μM TMZ for at least 60 days. TMZ resistance in U87R and A172R cells was confirmed using the colony formation assay (FIG. 11). Cells were cultured in DMEM supplemented with 10% FBS, 100 U/mL penicillin, […] streptomycin (all from Gibco; Thermo Fisher Scientific, Waltham, Mass., USA) and maintained in a humidified incubator at 37° C. and 5% CO2. NBM-BMX (BMX), (E)-2-(4-Methoxybenzyloxy)-3-prenyl-4-methoxy-N-hydroxycinamide, was provided by NatureWise Biotech & Medicals Corporation (Taipei, Taiwan).
(§2) We plated 3000 GBM cells per well in 96-well plates and allowed them to adhere overnight. […] Following treatment, the absorption value was measured using a CCK8 kit (Targetmol, Shanghai, China) at the indicated time points. […]

[3] = tested on: U87MG cells; experiment: Cell proliferation/viability assay (CCK8 kit; text says MTT), U87MG; assay type: cell-based; conditions: Homo sapiens, U-87 MG, single agent, FIG. 2B/2C, read-out: IC50 values (alone)
Source text: as §1, §2

[4] = tested on: HCT116 cells; experiment: CRC cell proliferation assay (CCK8), HCT116; assay type: cell-based; conditions: Homo sapiens
Procedure: (§3) Three CRC cell lines HT29, HCT116 and RKO were used in this study. The American Type Culture Collection (ATCC; Manassas, Va., USA) provided human CRC cell lines HT29 (ATCC HTB-38; mutant TP53, p.R273H; APC frame shift, p. E1554fs; wild type β-catenin), HCT116 (ATCC CCL-247; wild type TP53; wild type APC; deletion β-catenin, p. S45del) and RKO (ATCC CRL-2577; wild type TP53; wild type APC; wild type β-catenin). Three CRC cells lines as listed above were cultured in adherent culture condition, maintained at 37° C. inside the cell incubation containing 5% CO2. The two cell lines of HCT-116 and HT-29 cells were cultured in McCoy's 5A medium with supplemented 10% fetal bovine serum (Gibco; Thermo Fischer Scientific, Grand Island, N.Y., USA)), 1% penicillin and 1% streptomycin. RKO cell was cultured in MEM medium with supplemented 10% FBS, 1% penicillin, 1% streptomycin and 1% sodium pyruvate. The cell cultures were passaged by trypsinization every three days. BM-BMX (BMX), (E)-2-(4-Methoxybenzyloxy)-3-prenyl-4-methoxy-N-hydroxycinamide, was provided by Nature Wise Biotech & Medicals Corporation (Taipei, Taiwan).
(§4) We plated 4000 CRC cells per well in 96-well plates and allowed them to adhere overnight. To validate cell line responsiveness to BMX and TMZ monotherapy, the cells were treated with different doses of BMX or TMZ for 24, 48, and 72 hrs. To confirm cell responsiveness to the BMX-TMZ combination, cells were either treated with different doses of TMZ ([…]) with or without BMX (5 μM) for 24, 48, and 72 hrs or with different doses of BMX (0-10 μM) with or without TMZ (50 μM) for 24, 48, and 72 hrs. Following treatment, the absorption value was measured using a CCK8 kit (Targetmol, Shanghai, China) at the indicated time points. The results are reported as the mean±standard deviation of at least three replicates.

[5] = tested on: A172-R cells; experiment: Cell proliferation/viability assay (CCK8 kit; text says MTT), A172-R; assay type: cell-based; conditions: Homo sapiens; A172-R cells (TMZ-resistant); single agent; FIG. 2B/2C; read-out: IC50 values (alone)
Source text: as §1, §2

[6] = tested on: RKO cells; experiment: CRC cell proliferation assay (CCK8), RKO; assay type: cell-based; conditions: Homo sapiens
Procedure: as §3, §4

[7] = tested on: U87MG-R cells; experiment: Cell proliferation/viability assay (CCK8 kit; text says MTT), U87MG-R; assay type: cell-based; conditions: Homo sapiens; U87MG-R cells (TMZ-resistant); single agent; FIG. 2B/2C; read-out: IC50 values (alone)
Source text: as §1, §2

[8] = statement from literature; cited from earlier work

For `COc1ccc(COc2c(/C=C/C(=O)NO)ccc(OC)c2CC=C(C)C)cc1` [BMX, (E)-2-(4-Methoxybenzyloxy)-3-prenyl-4-methoxy-N-hydroxycinamide], which MGMT expression [1] is on record?
The MGMT expression was “moderately decrease MGMT levels”.

And the IC50 [2]?
The IC50 was 21 ± 2.34 µM.

And the IC50 [3]?
The IC50 was 29.8 ± 2.32 µM.

And the IC50 ([4]; HCT-116, 24 h, BMX alone, 24 hrs, read-out: IC50 of BMX)?
The IC50 was 24.8 ± 2.5 µM.

What about the IC50 ([4]; HCT-116, 24 h, TMZ 50 μM combined with different concentrations of BMX, 24 hrs, read-out: IC50 of BMZ) of the same compound?
The IC50 was > 10 µM.

And the IC50 ([4]; HCT-116, 48 h, BMX alone, 48 hrs, read-out: IC50 of BMX)?
Its IC50 is 7.7 ± 0.3 µM.

What about the IC50 ([4]; HCT-116, 48 h, TMZ 50 μM combined with different concentrations of BMX, 48 hrs, read-out: IC50 of BMZ) of the same compound?
Its IC50 is 3.2 ± 0.3 µM.

And the IC50 ([4]; HCT-116, 72 h, BMX alone, 72 hrs, read-out: IC50 of BMX)?
Its IC50 is 1.5 ± 0.3 µM.

And the IC50 ([4]; HCT-116, 72 h, TMZ 50 μM combined with different concentrations of BMX, 72 hrs, read-out: IC50 of BMZ)?
Its IC50 is 0.9 ± 0.1 µM.

And the IC50 [5]?
The IC50 was > 52.6 µM.

And the IC50 ([6]; 24 h, BMX alone, 24 hrs, read-out: IC50 of BMX)?
The IC50 was 38.5 ± 3.5 µM.

And the IC50 ([6]; 24 h, TMZ 50 μM combined with different concentrations of BMX, 24 hrs, read-out: IC50 of BMZ)?
Its IC50 is > 10 µM.

And the IC50 ([6]; 48 h, BMX alone, 48 hrs, read-out: IC50 of BMX)?
Its IC50 is 7.2 ± 0.6 µM.

What about the IC50 ([6]; 48 h, TMZ 50 μM combined with different concentrations of BMX, 48 hrs, read-out: IC50 of BMZ) of the same compound?
Its IC50 is 3.6 ± 0.4 µM.

And the IC50 ([6]; 72 h, BMX alone, 72 hrs, read-out: IC50 of BMX)?
Its IC50 is 1.5 ± 0.2 µM.

And the IC50 ([6]; 72 h, TMZ 50 μM combined with different concentrations of BMX, 72 hrs, read-out: IC50 of BMZ)?
The IC50 was 0.9 ± 0.1 µM.

What about the IC50 [7] of the same compound?
Its IC50 is > 68.1 µM.

What about the blood-brain barrier penetration [8] of the same compound?
The blood-brain barrier penetration was “ability to cross the blood-brain barrier”.

Which MGMT expression [1] does the source give for `Cn1nnc2c(C(N)=O)ncn2c1=O` [TMZ, Temozolomide, reference compound] here?
The MGMT expression was “moderately suppress MGMT expression”.

And the IC50 [2]?
Its IC50 is 73.5 ± 3.65 µM.

And the IC50 [3]?
Its IC50 is 81 ± 1.68 µM.

What about the IC50 ([4]; HCT-116, 24 h, BMX 5 μM combined with different doses of TMZ, 24 hrs, read-out: IC50 of TMZ) of the same compound?
The IC50 was > 400 µM.

And the IC50 ([4]; HCT-116, 24 h, TMZ alone, 24 hrs, read-out: IC50 of TMZ)?
Its IC50 is > 1000 µM.

What about the IC50 ([4]; HCT-116, 48 h, BMX 5 μM combined with different doses of TMZ, 48 hrs, read-out: IC50 of TMZ) of the same compound?
Its IC50 is 41.6 ± 2.4 µM.

What about the IC50 ([4]; HCT-116, 48 h, TMZ alone, 48 hrs, read-out: IC50 of TMZ) of the same compound?
The IC50 was 515 ± 21.6 µM.

What about the IC50 ([4]; HCT-116, 72 h, TMZ alone, 72 hrs, read-out: IC50 of TMZ) of the same compound?
The IC50 was 192 ± 14.7 µM.

What about the IC50 [5] of the same compound?
The IC50 was 595 ± 23.4 µM.

What about the IC50 ([6]; 24 h, BMX 5 μM combined with different doses of TMZ, 24 hrs, read-out: IC50 of TMZ) of the same compound?
Its IC50 is > 400 µM.

What about the IC50 ([6]; 24 h, TMZ alone, 24 hrs, read-out: IC50 of TMZ) of the same compound?
Its IC50 is > 1000 µM.

What about the IC50 ([6]; 48 h, BMX 5 μM combined with different doses of TMZ, 48 hrs, read-out: IC50 of TMZ) of the same compound?
The IC50 was 21.9 ± 2.7 µM.

And the IC50 ([6]; 48 h, TMZ alone, 48 hrs, read-out: IC50 of TMZ)?
Its IC50 is 992 ± 52.4 µM.

And the IC50 ([6]; 72 h, TMZ alone, 72 hrs, read-out: IC50 of TMZ)?
The IC50 was 380 ± 40.3 µM.

What about the IC50 [7] of the same compound?
The IC50 was 303 ± 15.2 µM.

What about the blood-brain barrier penetration [8] of the same compound?
The blood-brain barrier penetration was “good penetration of the blood-brain barrier”.
